# According to ChEMBL document CHEMBL1681635, “II. SAR studies of pyridyl-piperazinyl-piperidine derivatives as CXCR3 chemokine antagonists” (Bioorg Med Chem Lett, 2011):
# Tests used:
# [1] = target: T1, C-X-C chemokine receptor type 3 (Homo sapiens, UniProt P49682); experiment: Antagonist activity at human CXCR3; format: functional
# T1 sequence (P49682 whole entry): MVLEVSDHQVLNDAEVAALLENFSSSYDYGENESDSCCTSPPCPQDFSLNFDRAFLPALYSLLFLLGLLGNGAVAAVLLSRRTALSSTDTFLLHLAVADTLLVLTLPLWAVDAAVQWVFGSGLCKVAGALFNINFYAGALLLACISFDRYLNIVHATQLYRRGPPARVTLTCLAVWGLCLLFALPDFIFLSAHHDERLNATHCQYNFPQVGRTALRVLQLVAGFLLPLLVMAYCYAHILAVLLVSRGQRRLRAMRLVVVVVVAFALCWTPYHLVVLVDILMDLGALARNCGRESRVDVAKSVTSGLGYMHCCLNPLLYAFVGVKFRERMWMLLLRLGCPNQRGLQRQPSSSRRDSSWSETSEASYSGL
# [2] = target: T2, C-X-C chemokine receptor type 3 (Rattus norvegicus, UniProt Q9JII9); experiment: Antagonist activity at rat CXCR3; format: functional
# T2 sequence (Q9JII9 whole entry): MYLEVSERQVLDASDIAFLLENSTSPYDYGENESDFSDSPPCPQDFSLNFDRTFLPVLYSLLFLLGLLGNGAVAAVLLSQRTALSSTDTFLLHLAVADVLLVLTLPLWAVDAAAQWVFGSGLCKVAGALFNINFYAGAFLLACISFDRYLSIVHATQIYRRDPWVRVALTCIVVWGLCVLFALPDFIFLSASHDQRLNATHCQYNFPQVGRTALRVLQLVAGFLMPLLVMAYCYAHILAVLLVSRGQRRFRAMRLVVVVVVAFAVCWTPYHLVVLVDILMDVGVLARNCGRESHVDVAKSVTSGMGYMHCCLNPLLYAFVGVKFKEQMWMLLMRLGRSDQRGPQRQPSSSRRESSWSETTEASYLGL
# [3] = AUC in Sprague-Dawley rat at 10 mg/kg, po after 6 hrs; format: ADME, organism-based; set-up: time < 6 hr, dose 10 mg/kg, route oral; conditions: plasma
# [4] = target: T3, C-X-C chemokine receptor type 3 (Mus musculus, UniProt O88410); experiment: Antagonist activity at mouse CXCR3; format: functional
# T3 sequence (O88410 whole entry): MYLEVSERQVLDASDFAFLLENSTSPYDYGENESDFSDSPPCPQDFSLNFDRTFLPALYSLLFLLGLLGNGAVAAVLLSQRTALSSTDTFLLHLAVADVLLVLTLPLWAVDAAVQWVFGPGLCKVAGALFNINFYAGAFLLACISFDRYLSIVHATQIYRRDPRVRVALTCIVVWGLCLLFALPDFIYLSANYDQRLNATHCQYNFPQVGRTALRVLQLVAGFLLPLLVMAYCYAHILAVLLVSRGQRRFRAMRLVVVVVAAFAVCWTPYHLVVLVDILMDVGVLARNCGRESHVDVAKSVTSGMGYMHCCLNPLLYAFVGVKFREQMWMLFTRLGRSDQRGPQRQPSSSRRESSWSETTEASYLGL
smiles,measurement,setting,value
CNC(=O)c1cnc(N2CCN(C3CCN(Cc4ccc(Cl)cc4)CC3)C(C(=O)NC)C2)c(Cl)c1 (centres undefined),IC50,[1],8900 nM
C[C@@H]1CN(C2CCN(Cc3ccc(Cl)cc3)CC2)CCN1c1ncc(C(=O)NCc2ccc(Cl)c(Cl)c2)cc1Cl,IC50,[1],220 nM
CNC(=O)c1cnc(N2CCN(C3CCN(CC(=O)c4ccc(F)cc4)CC3)[C@@H](C)C2)c(Cl)c1,IC50,[1],> 10000 nM
CNC(=O)c1cnc(N2CCC(N3CCN(Cc4ccc(Cl)cc4)CC3)C(C)C2)c(Cl)c1 (centres undefined),IC50,[1],280 nM
CNC(=O)c1cnc(N2CCN(C3CCN(Cc4ccc(Cl)cc4)CC3)C(CO)C2)c(Cl)c1 (centres undefined),IC50,[1],910 nM
CC(C)NC(=O)c1cnc(N2CCN(C3CCN(Cc4ccc(Cl)cc4)CC3)[C@@H](C)C2)c(Cl)c1,IC50,[1],5 nM
C[C@H]1CN(c2ncc(C(=O)N3CCC3)cc2Cl)CCN1C1CCN(Cc2ccc(Cl)cc2)CC1,IC50,[1],630 nM
CNC(=O)c1cnc(N2CCC(N3CCN(Cc4ccc(Cl)cc4)C[C@@H]3C)CC2)c(Cl)c1,IC50,[1],12500 nM
CNC(=O)c1cnc(N2CCN(C3CCN(Cc4ccc(C)cc4)CC3)[C@@H](C)C2)c(Cl)c1,IC50,[1],87 nM
CC1CN(C2CCN(Cc3ccc(Cl)cc3)CC2)CCN1c1ccc(C(=O)NCc2ccc(F)c(F)c2)cn1 (centres undefined),IC50,[1],2700 nM
CNC(=O)c1cnc(N2CCN(C3CCN(Cc4ccc(C(F)(F)F)cc4)CC3)[C@@H](C)C2)c(Cl)c1,IC50,[1],63 nM
CC[C@H]1CN(c2ncc(C(=O)NC)cc2Cl)CCN1C1CCN(Cc2ccc(Cl)cc2)CC1,IC50,[1],3 nM
C[C@H]1CN(c2ncc(C(=O)NCc3ccc(Cl)c(Cl)c3)cc2Cl)CCN1C1CCN(Cc2ccc(Cl)cc2)CC1,IC50,[1],16 nM
C[C@H]1CN(c2ncc(C(=O)NCC3CCCCC3)cc2Cl)CCN1C1CCN(Cc2ccc(Cl)cc2)CC1,IC50,[1],2.4 nM
"CNC(=O)c1cnc(N2CCN(C3CCN(C4CCc5cc(Cl)ccc54)CC3)[C@@H](C)C2)c(Cl)c1 (single isomer, unassigned; isomer 1)",IC50,[1],29 nM
CNC(=O)c1cnc(N2CCN(C3CCN(C(=O)c4ccnc5cc(Cl)ccc45)CC3)[C@@H](C)C2)c(Cl)c1,IC50,[1],> 10000 nM
CNC(=O)c1cnc(N2CCN(C3CCN(C(C)c4ccc(Cl)cc4)CC3)[C@@H](C)C2)c(Cl)c1 (stereo in doubt; 6l),IC50,[1],110 nM
CNC(=O)c1cnc(N2CCN(C3CCN(Cc4ccc(Cl)cc4)CC3)[C@@H](C)C2)c(Cl)c1,IC50,[1],32 nM
O=C(NCc1ccc(Cl)c(Cl)c1)c1cnc(N2CCC(N3CCN(Cc4ccc(Cl)cc4)CC3)CC2)c(Cl)c1,IC50,[1],4500 nM
CNC(=O)c1cnc(N2CCN(C3CCN(Cc4ccc(Cl)cc4)C(C)C3)CC2)c(Cl)c1 (centres undefined),IC50,[1],31 nM
CNC(=O)c1cnc(N2CCN(C3CCN(Cc4ccc(Cl)cc4)CC3)C(COC)C2)c(Cl)c1 (centres undefined),IC50,[1],3100 nM
"CNC(=O)c1cnc(N2CCN(C3CCN(C4CCc5cc(Cl)ccc54)CC3)[C@@H](C)C2)c(Cl)c1 (single isomer, unassigned; isomer 2)",IC50,[1],35 nM
C[C@H]1CN(c2ncc(C(=O)Nc3ccc(F)c(F)c3)cc2Cl)CCN1C1CCN(Cc2ccc(Cl)cc2)CC1,IC50,[1],22 nM
O=C(NCc1ccc(Cl)c(Cl)c1)c1cnc(N2CCN(C3CCN(Cc4ccc(Cl)cc4)CC3)CC2)c(Cl)c1,IC50,[1],35 nM
CCNC(=N)c1cnc(N2CCN(C3CCN(Cc4ccc(Cl)cc4)CC3)[C@@H](C)C2)c(Cl)c1,IC50,[1],83 nM
CNC(=O)c1cnc(N2CCN(C3CCN(Cc4cccs4)CC3)[C@@H](C)C2)c(Cl)c1,IC50,[1],1980 nM
CNC(=O)c1cnc(N2CCN(C3CCN(Cc4ccc(Cl)cc4Cl)CC3)[C@@H](C)C2)c(Cl)c1,IC50,[1],17 nM
COC(=O)c1cnc(N2CCN(C3CCN(Cc4ccc(Cl)cc4)CC3)[C@@H](C)C2)c(Cl)c1,IC50,[1],520 nM
"CNC(=O)c1cnc(N2CCN(C3CCN(C(C)c4ccc(Cl)cc4)CC3)[C@@H](C)C2)c(Cl)c1 (single isomer, unassigned; isomer 1)",IC50,[1],5 nM
CCNC(=O)c1cnc(N2CCN(C3CCN(Cc4ccc(Cl)cc4F)CC3)[C@@H](CC)C2)c(Cl)c1,IC50,[2],1.6 nM
same,AUC at 6 h,[3],0.95 µM·h
same,IC50,[4],1.1 nM
CC(=O)Nc1cnc(N2CCN(C3CCN(Cc4ccc(Cl)cc4)CC3)[C@@H](C)C2)c(Cl)c1,IC50,[1],8 nM
CCNC(=O)c1cnc(N2CCN(C3CCN(Cc4ccc(Cl)cc4)CC3)[C@@H](C(C)C)C2)c(Cl)c1,IC50,[1],23 nM
CNC(=O)c1cnc(N2CCN(C3CCN(Cc4ccc(Cl)cc4)CC3C)CC2)c(Cl)c1 (centres undefined),IC50,[1],64 nM
CCNC(=O)c1cnc(N2CCN(C3CCN(Cc4ccc(Cl)cc4)CC3)[C@@H](CC)C2)c(Cl)c1,IC50,[2],1.2 nM
same,AUC at 6 h,[3],0.41 µM·h
same,IC50,[1],0.3 nM
same,IC50,[4],0.5 nM
CNC(=O)c1cnc(N2CCN(C3CCN(Cc4ccc(Cl)cc4)CC3)[C@@H](CC(C)C)C2)c(Cl)c1,IC50,[1],260 nM
CNC(=O)c1cnc(N2CCN(C3CCN(C(=O)c4ccc(Cl)cc4)CC3)[C@@H](C)C2)c(Cl)c1,IC50,[1],210 nM
CNC(=O)c1cnc(N2CCN(C3CCN(Cc4ccc(Cl)cc4F)CC3)[C@@H](C)C2)c(Cl)c1,IC50,[1],18 nM
C[C@H]1CN(c2ncc(C(=O)N3CCCCC3)cc2Cl)CCN1C1CCN(Cc2ccc(Cl)cc2)CC1,IC50,[1],900 nM
CNC(=O)c1cnc(N2CCN(C3CCN(Cc4ccco4)CC3)[C@@H](C)C2)c(Cl)c1,IC50,[1],8100 nM
CCNC(=O)c1cnc(N2CCN(C3CCN(Cc4ccc(Cl)cc4)CC3)[C@@H](C)C2)c(Cl)c1,IC50,[1],2.3 nM
CNC(=O)c1cnc(N2CCN(C3CCN(Cc4ccc(Cl)cc4)CC3)C(C(=O)O)C2)c(Cl)c1 (centres undefined),IC50,[1],> 50000 nM
O=C(NCc1ccc(F)c(F)c1)c1cnc(N2CCN(C3CCN(Cc4ccc(Cl)cc4)CC3)C(=O)C2)c(Cl)c1,IC50,[1],1400 nM
CNC(=O)c1cnc(N2CCC(N3CCN(Cc4ccc(Cl)cc4)C[C@H]3C)CC2)c(Cl)c1,IC50,[1],7350 nM
CC1(N2CCN(c3ncc(C(=O)NCc4ccc(Cl)c(Cl)c4)cc3Cl)CC2)CCN(Cc2ccc(Cl)cc2)CC1,IC50,[1],27 nM
C[C@H]1CN(c2ncc(C(N)=O)cc2Cl)CCN1C1CCN(Cc2ccc(Cl)cc2)CC1,IC50,[1],39 nM
CNC(=O)c1cnc(N2CCN(C3CCN(Cc4ccc(F)cc4Cl)CC3)[C@@H](C)C2)c(Cl)c1,IC50,[1],58 nM
C[C@H]1CN(C2CCN(Cc3ccc(Cl)cc3)CC2)CCN1c1ncc(C(=O)NCc2ccc(Cl)c(Cl)c2)cc1Cl,IC50,[1],39 nM
CNC(=O)c1cnc(N2CCN(C3CCN(Cc4ccccn4)CC3)[C@@H](C)C2)c(Cl)c1,IC50,[1],7990 nM
CNC(=O)c1cnc(N2CCN(C3CCN(Cc4ccc(Cl)cc4)CC3)C(C(=O)OC)C2)c(Cl)c1 (centres undefined),IC50,[1],140 nM
C[C@H]1CN(c2ncc(C(=N)N)cc2Cl)CCN1C1CCN(Cc2ccc(Cl)cc2)CC1,IC50,[1],80 nM
C[C@H]1CN(c2ncc(NC(=O)C3CC3)cc2Cl)CCN1C1CCN(Cc2ccc(Cl)cc2)CC1,IC50,[1],20 nM
CCNC(=O)c1cnc(N2CCN(C3CCN(Cc4ccc(Cl)cc4F)CC3)C(C3CC3)C2)c(Cl)c1 (centres undefined),IC50,[1],32 nM
CNC(=O)c1cnc(N2CCN(C3CCN(Cc4ccc(Cl)cc4)CC3)CC2)c(Cl)c1,IC50,[1],560 nM
CNC(=O)c1cnc(N2CCN(C3CCN(Cc4ccc[nH]4)CC3)[C@@H](C)C2)c(Cl)c1,IC50,[1],8060 nM
CNC(=O)c1cnc(N2CCN(C3CCN(Cc4ccc(S(C)(=O)=O)cc4)CC3)[C@@H](C)C2)c(Cl)c1,IC50,[1],> 10000 nM
CNC(=O)c1cnc(N2CCN(C3CCN(Cc4ccc(Cl)cc4)CC3)[C@@H](c3ccccc3)C2)c(Cl)c1,IC50,[1],830 nM
O=C(NCc1ccc(F)c(F)c1)c1cnc(N2CCN(C3CCN(Cc4ccc(Cl)cc4)CC3)CC2)c(Cl)c1,IC50,[2],97 nM
same,IC50,[4],84 nM
CNC(=O)c1cnc(N2CCN(C3CCN(Cc4ccc(Cl)cc4)C(=O)C3)[C@@H](C)C2)c(Cl)c1 (some centres undefined),IC50,[1],7000 nM
